These are literature values, as cited in patent US11497806B2, “Immunization agents and methods of use” (priority 2014, dated 2022).

The subject of one data set is luciferase target gene. To be noted: heat treatment in the presence but not in the absence of mifepristone; FIG. 2.
For another data set, the target named is T1, transactivator (Homo sapiens, UniProt P06401).
T1 construct: host or cells: rat (in vivo)
To be noted: rats.

Read-outs that look alike come from different tables or passages of the source.

T1 sequence (P06401 640-891, added parts left off): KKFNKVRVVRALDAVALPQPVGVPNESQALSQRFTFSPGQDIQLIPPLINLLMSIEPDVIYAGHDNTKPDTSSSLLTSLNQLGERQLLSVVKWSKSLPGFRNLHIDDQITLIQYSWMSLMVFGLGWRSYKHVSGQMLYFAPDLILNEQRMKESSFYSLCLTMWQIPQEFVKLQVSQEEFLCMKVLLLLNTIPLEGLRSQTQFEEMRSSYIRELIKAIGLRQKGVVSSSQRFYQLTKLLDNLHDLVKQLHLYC

Take `CC#C[C@]1(O)CC[C@H]2[C@@H]3CCC4=CC(=O)CCC4=C3[C@@H](c3ccc(N(C)C)cc3)C[C@@]21C` [mifepristone]: the “Target gene expression after heat treatment” value in the data set on luciferase target gene is on record as “resulted in activation of target gene expression”. For the same compound, the “Amount reaching an effective concentration” value on transactivator (i.p.) was 5 µg/kg; on transactivator (orally), “about 10 μg/kg”.
